Experiments:
[1] = system: A549 cells; experiment: Phosphoinositide quantification by mass spectrometry, A549; assay type: cell-based, human; details: A549, 2 min
Procedure: A549 cells (5.10^5) or wild-type MEFs (3.10^5) were plated in complete media onto 3.5 cm dishes or 60 mm dishes respectively for 24 h, prior to FCS-free starvation media for 16 h. MEFs, in addition, were supplemented with arachidonic acid in the FCS-free starvation media as previously described. […] Reactions were terminated in 600 μl ice-cold 1 M HCl and cells scraped and resuspended, then divided into two equal samples in eppendorfs. […] The data are shown as response ratios, calculated by normalizing the multiple reaction monitoring (MRM)-targeted lipid integrated response area to that of a known amount of relevant internal standard. To account for any cell input variability, PIP3 response ratios were normalized to C38:4-PI response ratios; while PI(3,4)P2 response ratios were normalised to PI(4,5)P2 response ratios. Data shown are mean ±SD for n ≥3, except for non-DMSO control in MEF PIP3 measurements where n=1.

[2] = system: PI3Kα-WT MEFs; experiment: Mass spectrometry-based phosphoproteomics, PI3Kα-WT MEFs; assay type: cell-based, mouse; details: for number of differentially phosphorylated peptides/sites relative to DMSO: 1938 5 μM or insulin 100 nM
Procedure: PI3Kα-WT and PI3Kα-KO MEFs, grown in 15 cm dishes, were serum-starved overnight in DMEM with 1% penicillin-streptomycin and stimulated by the addition of 0.05% DMSO, 5 μM 1938 in final 0.05% DMSO or 100 nM insulin (Sigma #I5016) for 15 min or 4 h. Cells were lysed in 500 μl urea lysis buffer [50 mM triethylammonium bicarbonate, 8 M urea, cOmplete™ EDTA-free protease inhibitor cocktail (1:50 dilution) (Roche #11873580001), 1 PhosSTOP tablet (Roche #4906845001) per 10 ml of lysis buffer, 1 mM sodium orthovanadate] and lysates sonicated until clear for ~10 min with cooling breaks on ice. Protein concentration was measured using a BCA protein assay (Pierce #23227). 300 μg of protein was reduced with 5 mM Tris(2-carboxyethyl)phosphine hydrochloride (Sigma #C4706) at 37°C for 20 min and alkylated using 10 mM 2-chloroacetamide (Sigma #22790) for 20 min at room temperature in the dark. Proteins were digested with LysC (#129-02541; FUJIFILM Wako Chemicals, Osaka, Japan) for 3.5 h at 30°C. Samples were then diluted with 50 mM triethylammonium bicarbonate (Sigma #T7408) to reduce the urea concentration to 1.5 M, followed by an overnight peptide digestion with trypsin (Promega #V5113) at 37°C. Digest reactions were quenched by the addition of 10% trifluoroacetic acid (EMD Millipore #302031-M) to a final pH of 2.0. Sample desalting was performed using 35-350 μg C18 columns (HMM S18V; The Nest Group, Inc., Southborough, MA, USA) according to the manufacturer’ specifications. TiO2 (Hichrome Titansphere TiO2, 10 μm capacity, 100 mg, GL Sciences #5020-75010) was used for phosphoenrichment. Following peptide loading onto TiO2, the beads were sequentially washed with 1 M glycolic acid (Sigma #124737)/80% acetonitrile/5% trifluoroacetic acid, followed by 80% acetonitrile/0.2% trifluoroacetic acid and 20% acetonitrile before elution with 5% ammonium hydroxide. Enriched samples were desalted using 7-70 μg C18 columns (HUM S18V; The Nest Group, Inc., Southborough, MA, USA) according to the manufacturer’s specifications. Dried phosphopeptide samples were stored at -80°C and resuspended in 10% formic acid immediately prior to analysis. nLC-MS/MS was performed on a Q-Exactive Orbitrap Plus interfaced to a NANOSPRAY FLEX ion source and coupled to an Easy-nLC 1000 (Thermo Scientific). Fifty percent of each sample was analysed as 10 μl injections. Peptides were separated on a 27 cm fused silica emitter, 75 μm diameter, packed in-house with Reprosil-Pur 200 C18-AQ, 2.4 μm resin (Dr. Maisch, Ammerbuch-Entringen, Germany) using a linear gradient from 5% to 30% acetonitrile/0.1% formic acid over 180 min, at a flow rate of 250 nl/min. Peptides were ionised by electrospray ionisation using 1.9 kV applied immediately prior to the analytical column via a microtee built into the nanospray source with the ion transfer tube heated to 320°C and the S-lens set to 60%. Precursor ions were measured in a data-dependent mode in the orbitrap analyser at a resolution of 70,000 and a target value of 3e6 ions. The ten most intense ions from each MS1 scan were isolated, fragmented in the HCD cell, and measured in the Orbitrap at a resolution of 17,500.
Raw data were analysed with MaxQuant[72] (version 1.5.5.1) where they were searched against the mouse UniProt database (http://www.uniprot.org/, downloaded 04/12/2018) using default settings. Carbamidomethylation of cysteines was set as fixed modification, and oxidation of methionines, acetylation at protein N-termini, phosphorylation (on S, T or Y) were set as variable modifications. Enzyme specificity was set to trypsin with maximally 2 missed cleavages allowed. To ensure high confidence identifications, peptide-spectral matches, peptides, and proteins were filtered at a less than 1% false discovery rate (FDR). Label-free quantification in MaxQuant was used with a LFQ minimum ratio count of 2, Fast LFQ selected and the ‘skip normalisation’ option selected. […]

[3] = system: PI3Kα-WT MEFs; experiment: Cell cycle progression by EdU staining, PI3Kα-WT MEFs; assay type: cell-based, mouse; details: 24h; BYL719 as co-treatment with 1938
Procedure: The Click-IT EdU protocol was used according to manufacturer instructions (Sigma-Aldrich #BCK-FC488-50). Briefly, MEFs were seeded at 50,000 cells per well in 6-well plates in DMEM supplemented with 10% FBS and 1% P/S, and allowed to attach overnight. The next day, cells were serum-starved for 5 h prior to compound addition for 24 h in fresh serum-free DMEM. Cells were then pulsed for 3 h with 10 μM EdU, followed by collection by trypsinization and fixation with 3.7% FA in PBS for 15 min in the dark, washed in 3% BSA and permeabilized in 1x saponin-based permeabilization buffer for 20 min in the dark. EdU was then detected using the FAM-azide assay cocktail for 30 min in the dark. Cells were washed twice in 1x saponin-based permeabilization buffer followed by analysis with flow cytometer (Novocyte Advanteon flow cytometer, Agilent). Gating strategy for flow cytometry is shown in Supplementary Fig. 2.

[4] = system: PI3Kα-WT MEFs; experiment: Cell number by crystal violet staining, PI3Kα-WT MEFs; assay type: cell-based, mouse; details: 24h
Procedure: MEFs were seeded at 5000 cells per well in 96-well plates in DMEM supplemented with 10% FBS and 1% P/S, and allowed to attach overnight. The next day, cells were serum-starved for 5 h prior to compound addition in fresh serum-free DMEM. After different time points, cells were rapidly washed with distilled H2O before fixed and stained in a solution of 0.5% crystal violet (Sigma-Aldrich #C0775) in 20% methanol (v:v) as described. Briefly, after 20 min incubation at room temperature on a rocking platform, fixed and stained cells were washed 3 times with distilled H2O and plates air-dried overnight. 200 μl methanol was next added to each well and the plates were incubated at room temperature for 20 min on a bench rocker, followed by measurement of optical density at 570 with a plate reader.

Row | Molecule | concentration at which the PIP3 response maxed out [1] | number of differentially phosphorylated peptides/sites relative to DMSO ([2]; 15 min) | number of differentially phosphorylated peptides/sites relative to DMSO ([2]; 4h) | log2FC, PI3Ka WT 4 h 1938 vs PI3Ka WT DMSO ([2]; phosphosite Cask_S544) | log2FC, PI3Ka WT 15’ 1938 vs PI3Ka WT DMSO ([2]; phosphosite Cask_S545) | log2FC, PI3Ka WT 4 h 1938 vs PI3Ka WT DMSO ([2]; phosphosite Cask_S545) | log2FC, PI3Ka WT 15’ 1938 vs PI3Ka WT DMSO ([2]; phosphosite Gm42715_S1683) | log2FC, PI3Ka WT 4 h 1938 vs PI3Ka WT DMSO ([2]; phosphosite Gm42715_S1683) | cell cycle progression (EdU incorporation) [3] | cell number (crystal violet staining) [4] | PIP3 response [1] | log2FC, PI3Ka WT 15’ Insulin vs PI3Ka WT DMSO ([2]; phosphosite Cask_S545) | log2FC, PI3Ka WT 4 h Insulin vs PI3Ka WT DMSO ([2]; phosphosite Cask_S545) | log2FC, PI3Ka WT 15’ Insulin vs PI3Ka WT DMSO ([2]; phosphosite Gm42715_S1683) | log2FC, PI3Ka WT 4 h Insulin vs PI3Ka WT DMSO ([2]; phosphosite Gm42715_S1683)
1 | CCN1CCN(c2ccc(Nc3cc(Nc4cccc5c4N(C(C)=O)CC5)ccn3)cc2)CC1 [Compound 1938] | 10 µM | 27 | 50 | Inf | -0.1674 | -0.01008 | 1.032 | 0.9181 | induced cell cycle progression | increase in cell number | – | – | – | – | –
2 | insulin: insulin, canonical activator of PI3Kα, used as positive control | – | 11 | 18 | – | – | – | – | – | did not induce cell cycle progression | did not induce cell cycle progression and an increase in cell number | strong PIP3 response | -0.06497 | -0.07238 | 0.5546 | 1.083

Source: article PMC7614683, “A small molecule PI3Kα activator for cardioprotection and neuroregeneration” (Nature, 2023)
